Measurements from patent US6528494B2 (priority 1996, dated 2003).
Counter-ions that a name gives are not always drawn.

Tests used:
Assay type in all cases: cell-based
[1] = molecular target: adenosine 2a receptor (Homo sapiens, UniProt P29274); test: Agonist activity against adenosine 2a receptor (CHO cells, cAMP/SPAP reporter); conditions: CHO cells transfected with human receptor; basal cAMP via SPAP; mean of all the versions tested
Procedure: (§1) (1) Agonist activity against adenosine 2a, adenosine 1 and adenosine 3 receptor subtypes.
(§2) The effect of test compounds was determined by their effects on basal levels of cAMP (A2a) or on forskolin-enhanced cAMP (A1 and A3) as reflected by changes in levels of SPAP.

[2] = molecular target: T1, adenosine 1 receptor (Homo sapiens, UniProt P30542); test: Agonist activity against adenosine 1 receptor (CHO cells, forskolin-enhanced cAMP/SPAP reporter); conditions: CHO cells transfected with human receptor; forskolin-enhanced cAMP via SPAP; mean of all the versions tested
T1 sequence (P30542 1-326): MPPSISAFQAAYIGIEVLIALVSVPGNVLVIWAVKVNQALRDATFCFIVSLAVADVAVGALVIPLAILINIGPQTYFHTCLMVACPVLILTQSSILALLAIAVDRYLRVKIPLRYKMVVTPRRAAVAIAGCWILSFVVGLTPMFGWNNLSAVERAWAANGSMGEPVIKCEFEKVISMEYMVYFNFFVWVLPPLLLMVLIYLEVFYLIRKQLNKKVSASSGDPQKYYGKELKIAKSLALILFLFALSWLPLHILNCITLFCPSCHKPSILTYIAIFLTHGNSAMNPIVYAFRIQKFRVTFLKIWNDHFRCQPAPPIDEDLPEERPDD
Procedure: as §1, §2

[3] = molecular target: T2, adenosine 3 receptor (Homo sapiens, UniProt P0DMS8); test: Agonist activity against adenosine 3 receptor (CHO cells, forskolin-enhanced cAMP/SPAP reporter); conditions: CHO cells transfected with human receptor; forskolin-enhanced cAMP via SPAP; mean of all the versions tested
T2 sequence (P0DMS8 1-318): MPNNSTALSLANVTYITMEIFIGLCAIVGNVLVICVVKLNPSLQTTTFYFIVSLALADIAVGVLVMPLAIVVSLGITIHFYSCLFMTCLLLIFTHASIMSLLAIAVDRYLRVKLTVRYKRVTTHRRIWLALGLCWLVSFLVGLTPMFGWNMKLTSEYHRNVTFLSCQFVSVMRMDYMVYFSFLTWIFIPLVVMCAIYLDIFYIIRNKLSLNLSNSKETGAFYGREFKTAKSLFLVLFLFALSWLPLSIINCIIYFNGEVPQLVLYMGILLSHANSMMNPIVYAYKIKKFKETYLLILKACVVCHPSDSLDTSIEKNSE
Procedure: as §1, §2

adenosine 2a receptor, sequence (P29274 whole entry): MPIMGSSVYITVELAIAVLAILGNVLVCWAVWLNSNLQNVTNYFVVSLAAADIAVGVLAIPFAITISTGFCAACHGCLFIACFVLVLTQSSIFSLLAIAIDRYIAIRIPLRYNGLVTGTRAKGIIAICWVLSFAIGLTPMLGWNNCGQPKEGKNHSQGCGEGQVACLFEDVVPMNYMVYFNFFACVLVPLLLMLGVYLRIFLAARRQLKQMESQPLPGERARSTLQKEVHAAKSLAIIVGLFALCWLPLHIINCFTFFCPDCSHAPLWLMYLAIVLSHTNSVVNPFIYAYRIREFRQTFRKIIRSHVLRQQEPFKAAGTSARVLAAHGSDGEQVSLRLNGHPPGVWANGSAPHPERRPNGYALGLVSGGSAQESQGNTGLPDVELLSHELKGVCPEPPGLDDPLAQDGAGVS

Row | SMILES | A2a EC50 as a ratio of that of NECA [1] | A1 EC50 as a ratio of that of NECA [2] | A3 EC50 as a ratio of that of NECA [3]
1 | CC(C)n1nnc(C2OC(n3cnc4c(NC5CCCC5)nc(NCCN5CCCC5)nc43)C(O)C2O)n1.O=CO.O=CO [Example 81, (2R,3R,4S,5R)-2-[6-Cyclopentylamino-2-(2-pyrrolidin-1-yl-ethylamino)-purin-9-yl]-5-(2-isopropyl-2H-tetrazol-5-yl)-tetrahydro-furan-3,4-diol Diformate] | 4.77 | 89.11 | >156
2 | CC(C)n1nnc(C2OC(n3cnc4c(NC(CO)Cc5ccccc5)nc(NCCc5cn(C)cn5)nc43)C(O)C2O)n1 [Example 40, (2R,3R,4S,5R)-2-{6-(1S-Hydroxymethyl-2-phenyl-ethylamino)-2-[2-(1-methyl-1H-imidazol-4-yl)-ethylamino]-purin-9-yl}-5-(2-isopropyl-2H-tetrazol-5-yl)-tetrahydro-furan-3,4-diol Formate] | 0.31 | 22.1 | >232
3 | Cn1nnc(C2OC(n3cnc4c(NCC(c5ccccc5)c5ccccc5)nc(NC5CCC(N)CC5)nc43)C(O)C2O)n1.O=CO.O=CO [Example 93, (2R,3R,4S,5R)-2-[2-(trans-4-Amino-cyclohexylamino)-6-(2,2-diphenyl-ethylamino)-purin-9-yl]-5-(2-methyl-2H-tetrazol-5-yl)-tetrahydro-furan-3,4-diol Diformate] | 5.07 | 922.00 | >153
4 | CCn1nnc([C@H]2O[C@@H](n3cnc4c(N)nc(NC5CCCC5)nc43)[C@H](O)[C@@H]2O)n1.O=C(O)C(F)(F)F.O=C(O)C(F)(F)F [Example 12] | 0.57 | 31.2 | >243
5 | CCn1nnc([C@H]2O[C@@H](n3cnc4c(NCC(c5ccccc5)c5ccccc5)nc(NCCN)nc43)[C@H](O)[C@@H]2O)n1 [Example 83, (2R,3R,4S,5R)-2-[2-(2-Amino-ethylamino)-6-(2,2-diphenyl-ethylamino)-purin-9-yl]-5-(2-ethyl-2H-tetrazol-5-yl)-tetrahydro-furan-3,4-diol] | 4.82 | 130.10 | >362
6 | CC(C)C(CO)Nc1nc(NCC(c2ccccc2)c2ccccc2)c2ncn(C3OC(c4nnn(C)n4)C(O)C3O)c2n1 [Example 99, (2R,3R,4S,5R)-2-[6-(2,2-Diphenyl-ethylamino)-2-(1S-hydroxymethyl-2-methyl-propylamino)-purin-9-yl]-5-(2-methyl-2H-tetrazol-5-yl)-tetrahydro-furan-3,4-diol Formate] | 4.82 | 87.00 | >130
7 | Cn1cnc(CCNc2nc(NCC(c3ccccc3)c3ccccc3)c3ncn([C@@H]4O[C@H](c5nnn(C)n5)[C@@H](O)[C@H]4O)c3n2)c1.O=CO [Example 27, (2R,3R,4S,5R)-2-{6-(2,2-Diphenyl-ethylamino)-2-[2-(1-methyl-1H-imidazol-4-yl)-ethylamino]-purin-9-yl}-5-(2-methyl-2H-tetrazol-5-yl)-tetrahydro-furan-3,4-diol Formate] | 0.08 | 449.7 | >286
8 | Cn1cnc(CCNc2nc(NCc3ccccc3)c3ncn([C@@H]4O[C@H](c5nnn(C)n5)[C@@H](O)[C@H]4O)c3n2)c1.O=CO [Example 30, (2R,3R,4S,5R)-2-{6-Benzylamino-2-[2-(1-methyl-1H-imidazol-4-yl)-ethylamino]-purin-9-yl}-5-(2-methyl-2H-tetrazol-5-yl)-tetrahydro-furan-3,4-diol Formate] | 0.43 | >7976 | >105
9 | CCn1nnc(C2OC(n3cnc4c(NC5CCCC5)nc(NCCN5CCCCC5)nc43)C(O)C2O)n1.O=CO.O=CO [Example 104, (2R,3R,4S,5R)-2-[6-Cyclopentylamino-2-(2-piperidin-1-yl-ethylamino)-purin-9-yl]-5-(2-ethyl-2H-tetrazol-5-yl)-tetrahydro-furan-3,4-diol bis(Formate)] | 4.04 | 113.40 | >235
10 | CCn1nnc([C@H]2O[C@@H](n3cnc4c(NCC(c5ccccc5)c5ccccc5)nc(NC5CCS(=O)(=O)C5)nc43)[C@H](O)[C@@H]2O)n1.O=C(O)C(F)(F)F.O=C(O)C(F)(F)F (stereo partly drawn) [Example 45] | 2.26 | >1578.00 | >420
11 | CCn1nnc([C@H]2O[C@@H](n3cnc4c(N)nc(NCCc5ccc(O)c(O)c5)nc43)[C@H](O)[C@@H]2O)n1.O=CO [Example 15, (2R,3R,4S,5R)-2-{6-Amino-2-[2-(3,4-dihydroxy-phenyl)-ethylamino]-purin-9-yl}-5-(2-ethyl-2H-tetrazol-5-yl)-tetrahydro-furan-3,4-diol Formate] | 0.55 | 139.5 | >209
12 | CCC(CC)Nc1nc(NCCN2CCCCC2)nc2c1ncn2C1OC(c2nnn(C(C)C)n2)C(O)C1O.O=CO.O=CO [Example 68, (2R,3R,4S,5R)-2-[6-(1-Ethyl-propylamino)-2-(2-piperidin-1-yl-ethylamino)-purin-9-yl]-5-(2-isopropyl-2H-tetrazol-5-yl)-tetrahydro-furan-3,4-diol bis(Formate)] | 3.50 | 56.20 | >331
13 | CC(C)n1nnc([C@H]2O[C@@H](n3cnc4c(NC5CCCC5)nc(NCCc5cn(C)cn5)nc43)[C@H](O)[C@@H]2O)n1.O=CO [Example 41, (2R,3R,4S,5R)-2-{6-Cyclopentylamino-2-[2-(1-methyl-1H-imidazol-4-yl)-ethylamino]-purin-9-yl}-5-(2-isopropyl-2H-tetrazol-5-yl)-tetrahydro-furan-3,4-diol Formate] | 0.73 | 28.9 | >232
14 | CCn1nnc([C@H]2O[C@@H](n3cnc4c(N)nc(NCCc5ccc(N)cc5)nc43)[C@H](O)[C@@H]2O)n1.O=CO [Example 14, (2R,3R,4S,5R)-2-{6-Amino-2-[2-(4-amino-phenyl)-ethylamino]-purin-9-yl}-5-(2-ethyl-2H-tetrazol-5-yl)-tetrahydro-furan-3,4-diol Formate] | 0.55 | 181.1 | >209
15 | CCC(CC)Nc1nc(NCCc2cn(C)cn2)nc2c1ncn2[C@@H]1O[C@H](c2nnn(C(C)C)n2)[C@@H](O)[C@H]1O.O=CO [Example 59, (2R,3R,4S,5R)-2-{6-(1-Ethyl-propylamino)-2-[2-(1-methyl-1H-imidazol-4-yl)-ethylamino]-purin-9-yl}-5-(2-isopropyl-2H-tetrazol-5-yl)-tetrahydro-furan-3,4-diol Formate] | 2.34 | 92.30 | >749
16 | Cn1cnc(CCNc2nc(NCCc3ccccc3)c3ncn([C@@H]4O[C@H](c5nnn(C)n5)[C@@H](O)[C@H]4O)c3n2)c1.O=CO [Example 34, (2R,3R,4S,5R)-2-{2-[2-(1-Methyl-1H-imidazol-4-yl)-ethylamino]-6-phenethylamino-purin-9-yl}-5-(2-methyl-2H-tetrazol-5-yl)-tetrahydro-furan-3,4-diol Formate] | 0.13 | 1316 | >173
17 | Cn1cnc(CCNc2nc(NCc3cccc(I)c3)c3ncn([C@@H]4O[C@H](c5nnn(C)n5)[C@@H](O)[C@H]4O)c3n2)c1.O=CO [Example 29, (2R,3R,4S,5R)-2-{6-(3-Iodo-benzylamino)-2-[2-(1-methyl-1H-imidazol-4-yl)-ethylamino]-purin-9-yl}-5-(2-methyl-2H-tetrazol-5-yl)-tetrahydro-furan-3,4-diol Formate] | 0.87 | >3561 | >105
18 | CCn1nnc(C2OC(n3cnc4c(NC5CCCC5)nc(NCCc5cn(C)cn5)nc43)C(O)C2O)n1 [Example 7, (2R,3R,4S,5R)-(2-{6-Cyclopentylamino-2-[2-(1-methyl-1H-imidazol-4-yl)-ethylamino]-purin-9-yl}-5-(2-ethyl-2H-tetrazol-5-yl)-tetrahydro-furan-3,4-diol Acetate] | 0.12 | 26.2 | >161
